Consider four compounds from EPA's ToxRefDB 2.

SMILES strings stand for the structures. A value given as a limit tells only on which side of the number the result lay.

In data set [1] the test system is primate. To be noted: Sub-acute repeat dose toxicity; Oral; Gavage/Intubation; dose end: 4 day; group: systemic; systemic / in life observation / clinical signs / ataxia + systemic / in life observation / clinical signs / emesis + systemic / in life ….
For data set [2], the system named is primate. To be noted: Sub-acute repeat dose toxicity, Oral, Gavage/Intubation, dose end: 30 day, group: systemic.
The test system of data set [3] is primate. To be noted: Sub-acute repeat dose toxicity; Oral; Gavage/Intubation; dose end: 10 day; group: systemic; systemic / clinical chemistry / alanine aminotransferase (alt/sgpt) / alanine aminotransferase (alt/sgpt) + systemic / clinical chemistry / ….
In data set [4] the test system is rat. The following applies: Sub-acute repeat dose toxicity, Oral, Gavage/Intubation, dose end: 30 day, group: systemic.
The test system of data set [5] is rat. The following applies: Sub-acute repeat dose toxicity; Oral; Gavage/Intubation; dose end: 10 day; group: systemic; systemic / hematology / erythrocyte (rbc) count differential / erythrocyte (rbc) + systemic / hematology / hematocrit (hct) / hematocrit (….
Data set [6] has as its system rat. To be noted: Carcinogenicity; other; Oral; Feed; dose end: 80 week; group: systemic; systemic / in life observation / body weight / body weight + systemic / in life observation / clinical signs / [other] + systemic / in life ….
Data set [7] concerns mouse. The following applies: Carcinogenicity; b6c3f1; Oral; Feed; dose end: 80 week; group: systemic; systemic / pathology microscopic / liver / carcinoma.
Data set [8] deals with rat. The following applies: Subchronic oral toxicity in rodents, other, Feed, dose end: 90 day, group: systemic, systemic / in life observation / body weight / body weight gain + systemic / organ weight / kidney / nos + systemic / organ weight / liver….
Data set [9] concerns rat. To be noted: Combined chronic toxicity/carcinogenicity, wistar, Oral, Feed, dose end: 24 month, group: systemic.
Data set [10] deals with rat. To be noted: Multigenerational reproductive toxicity study, sprague dawley, Oral, Feed, dose end: 2 generation.
The subject of data set [11] is dog. To be noted: Chronic toxicity; beagle; Oral; Feed; dose end: 107 week; group: systemic; systemic / clinical chemistry / [other] / [other] + systemic / clinical chemistry / alanine aminotransferase (alt/sgpt) / alanine ….
In data set [12] the test system is mouse. The following applies: Carcinogenicity; cd1; Oral; Feed; dose end: 80 week; group: systemic; systemic / pathology microscopic / liver / hypertrophy + systemic / pathology microscopic / liver / infiltration cellular + systemic / ….
Data set [13] deals with dog. To be noted: Subchronic oral toxicity in nonrodent, beagle, Feed, dose end: 90 day, group: systemic, systemic / clinical chemistry / alanine aminotransferase (alt/sgpt) / alanine aminotransferase (alt/sgpt) + systemic / clinical chemistry / ….
The test system of data set [14] is rat. The following applies: Prenatal developmental toxicity study, wistar, Oral, Gavage/Intubation, dose end: 20 GD.
Data set [15] relates to rat. To be noted: Carcinogenicity, fischer, Oral, Gavage/Intubation, dose end: 103 week, group: systemic.
Data set [16] has as its system mouse. To be noted: Sub-acute repeat dose toxicity, b6c3f1, Oral, Gavage/Intubation, dose end: 15 day, group: systemic.
Data set [17] has as its system rat. To be noted: Sub-acute repeat dose toxicity, fischer, Oral, Gavage/Intubation, dose end: 14 day, group: systemic.
In data set [18] the test system is rat. To be noted: Subchronic oral toxicity in rodents, fischer, Gavage/Intubation, dose end: 13 week, group: systemic, systemic / pathology gross / spleen / enlarged + systemic / pathology microscopic / kidney / hemosiderosis + systemic / pathology ….
Data set [19] relates to mouse. The following applies: Carcinogenicity, b6c3f1, Oral, Gavage/Intubation, dose end: 103 week, group: systemic.
The test system of data set [20] is mouse. To be noted: Subchronic oral toxicity in rodents, b6c3f1, Gavage/Intubation, dose end: 13 week, group: systemic.
The mark [21] stands for this setting: systemic / clinical chemistry / cytochrome p450, nos / cytochrome p450, nos + systemic / hematology / blood clotting / blood clotting - ….
Where [22] appears, read: systemic / clinical chemistry / cholesterol / cholesterol + systemic / clinical chemistry / cytochrome p450, nos / cytochrome p450, nos + ….
Setting [23] is: systemic / clinical chemistry / urea nitrogen / urea nitrogen + systemic / hematology / neutrophils / neutrophils.
Setting [24] is: systemic / in life observation / body weight / body weight gain + systemic / pathology microscopic / brain / vacuolization + systemic / ….
Where [25] appears, read: systemic / pathology microscopic / spleen / hemosiderosis + systemic / pathology microscopic / uterus / adenocarcinoma.
Setting [26] is: group: offspring, systemic / in life observation / body weight / offspring (pup) weight + systemic / in life observation / body weight / offspring (pup) ….
[27] abbreviates: group: parental, systemic / organ weight / kidney / absolute + systemic / organ weight / kidney / relative to body weight + systemic / organ weight / liver….
The mark [28] stands for this setting: group: developmental, developmental / developmental malformation / bone / short supernumerary.
[29] abbreviates: group: developmental, developmental / developmental malformation / bone / short supernumerary + systemic / in life observation / body weight / fetal weight.
The mark [30] stands for this setting: group: maternal, systemic / in life observation / body weight / body weight gain + systemic / in life observation / food consumption / food consumption.
Where [31] appears, read: systemic / pathology microscopic / liver / inflammation + systemic / pathology microscopic / spleen / hematopoietic cell proliferation + ….
Where [32] appears, read: systemic / pathology microscopic / spleen / hematopoietic cell proliferation + systemic / pathology microscopic / spleen / hemosiderosis.
Where [33] appears, read: systemic / pathology gross / spleen / enlarged.
[34] abbreviates: systemic / pathology gross / spleen / enlarged + systemic / pathology microscopic / spleen / congestion + systemic / pathology microscopic….
The mark [35] stands for this setting: systemic / pathology gross / spleen / enlarged + systemic / pathology microscopic / spleen / hematopoietic cell proliferation + systemic / ….
Setting [36] is: systemic / pathology microscopic / stomach / hyperplasia.
Setting [37] is: systemic / pathology microscopic / stomach / squamous cell papilloma + systemic / pathology microscopic / stomach / hyperplasia.
Setting [38] is: systemic / in life observation / body weight / body weight.

Consider `CC(C)(C)c1nnc2ccc(-c3ocnc3-c3cc(F)c(F)cc3F)cn12`, for which the LEL with primate [1] came to 100 mg/kg/day; in the data set with primate [2] (systemic / hematology / fibrinogen / fibrinogen), 10 mg/kg/day; in the data set with primate [3], 10 mg/kg/day; in the data set on rat [4] (setting [23]), 3 mg/kg/day; with rat [5], 10 mg/kg/day. For the same compound, the lowest observed adverse effect level (LOAEL) in the data set on primate [1], in the data set with primate [2] (setting [21]), with primate [3], with rat [4] (setting [22]) and in the data set on rat [5] was greater than 100 mg/kg/day in each case. Also, the NEL in the data set on primate [1] was less than 100 mg/kg/day; with primate [2] (setting [21]) it was 3 mg/kg/day; with primate [3], less than 10 mg/kg/day; with rat [4] (setting [23]), less than 3 mg/kg/day; in the data set with rat [5], less than 10 mg/kg/day. Also, the NOAEL with primate [1], with primate [2] (setting [21]), in the data set on primate [3], with rat [4] (setting [22]) and in the data set on rat [5] was no less than 100 mg/kg/day each time.

Turning to `Nc1cc(Cl)cc(C(=O)O)c1Cl` [Chloramben], in the data set on rat [6], the LEL came to 1000 mg/kg/day, the LOAEL was greater than 1000 mg/kg/day, the NEL was found to be 500 mg/kg/day and the NOAEL was no less than 1000 mg/kg/day. Moreover, in the data set on mouse [7], the LEL turned out to be 1500 mg/kg/day, the lowest observed adverse effect level (LOAEL) is greater than 3000 mg/kg/day, the NEL is less than 1500 mg/kg/day and the NOAEL was no less than 3000 mg/kg/day.

Turning to `Nc1c(Cl)cc([N+](=O)[O-])cc1Cl` [Dicloran], the LEL with rat [8] is 150 mg/kg/day; in the data set on rat [9] (setting [25]), 3.7 mg/kg/day; with rat [10] (setting [26]), 87 mg/kg/day; in the data set with rat [10] (setting [27]), 87 mg/kg/day; with dog [11] it was 75 mg/kg/day; in the data set with mouse [12], 86.5 mg/kg/day. The LEL in the data set on dog [13] stood at 75 mg/kg/day; in the data set with rat [14] (setting [28]) it was 50 mg/kg/day; in the data set with rat [14] (setting [30]) it was 50 mg/kg/day. In addition, the LOAEL is 150 mg/kg/day with rat [8]; 71 mg/kg/day in the data set on rat [9] (setting [24]); 87 mg/kg/day in the data set with rat [10] (setting [26]); 87 mg/kg/day with rat [10] (setting [27]); 75 mg/kg/day with dog [11]; 86.5 mg/kg/day in the data set with mouse [12]. Further, the LOAEL with dog [13] was determined as 75 mg/kg/day; with rat [14] (setting [29]), 100 mg/kg/day; with rat [14] (setting [30]), 50 mg/kg/day. Also, the NEL was 5 mg/kg/day in the data set on rat [8]; less than 3.7 mg/kg/day in the data set with rat [9] (setting [25]); 16.9 mg/kg/day with rat [10] (setting [26]); 16.9 mg/kg/day with rat [10] (group: parental, systemic / in life observation / clinical signs / discharge on cageboard); 2.5 mg/kg/day in the data set with dog [11]; 24.5 mg/kg/day in the data set on mouse [12]. The results for the NEL in the data set with dog [13], in the data set with rat [14] (setting [28]) and in the data set on rat [14] (setting [30]) were 2.5 mg/kg/day, less than 50 mg/kg/day and less than 50 mg/kg/day, respectively. Moreover, the no observed adverse effect level (NOAEL) was determined as 5 mg/kg/day in the data set on rat [8]; 11.3 mg/kg/day in the data set with rat [9] (setting [24]); 16.9 mg/kg/day in the data set on rat [10] (setting [26]); 16.9 mg/kg/day in the data set on rat [10] (setting [27]); 2.5 mg/kg/day in the data set with dog [11]; 24.5 mg/kg/day in the data set with mouse [12]. Moreover, the figures for the NOAEL in the data set on dog [13], in the data set on rat [14] (setting [29]) and in the data set on rat [14] (setting [30]) were 2.5 mg/kg/day, 50 mg/kg/day and less than 50 mg/kg/day, respectively.

Turning to `CN(C)c1ccccc1` [N,N-Dimethylaniline], the LOAEL with rat [15] (setting [31]) was 30 mg/kg/day; in the data set on mouse [16] (setting [34]) it was 375 mg/kg/day; in the data set on rat [17] (setting [35]), 375 mg/kg/day; in the data set on rat [18] it was 31 mg/kg/day; in the data set with mouse [19] (setting [37]) it was greater than 30 mg/kg/day; with mouse [20] (setting [35]), 62 mg/kg/day. The no-observed-adverse-effect level (NOAEL) was 3 mg/kg/day with rat [15] (setting [31]); 188 mg/kg/day with mouse [16] (setting [34]); 188 mg/kg/day in the data set on rat [17] (setting [35]); less than 31 mg/kg/day with rat [18]; no less than 30 mg/kg/day in the data set on mouse [19] (setting [37]); 31 mg/kg/day with mouse [20] (setting [35]). Also, the LEL stood at 3 mg/kg/day in the data set with rat [15] (setting [32]); 188 mg/kg/day with mouse [16] (setting [33]); 94 mg/kg/day with rat [17] (setting [33]); 31 mg/kg/day in the data set on rat [18]; 15 mg/kg/day in the data set on mouse [19] (setting [36]); 31 mg/kg/day in the data set with mouse [20] (setting [38]). Moreover, the NEL was less than 3 mg/kg/day in the data set on rat [15] (setting [32]); 94 mg/kg/day with mouse [16] (setting [34]); less than 94 mg/kg/day with rat [17] (setting [33]); less than 31 mg/kg/day with rat [18]; less than 15 mg/kg/day in the data set on mouse [19] (setting [36]); less than 31 mg/kg/day in the data set with mouse [20] (setting [38]).

The term LOAEL denotes the lowest dose or exposure tested at which an adverse effect was seen. In general, NOAEL refers to the highest dose or exposure tested at which no adverse effect was seen.
